Species on record: Rattus norvegicus
Test: Open TG-GATES - Regimen: Single
Assay type: toxicity, organism-based, Sprague-Dawley
Parameters: regimen Single, gender Male, age 6 weeks
Settings: in vivo, po, 300 mg/kg, route gavage, dose level High; for APTT / Bas / Eos / Fbg / Hb / Ht / Lym / MCH / MCHC / MCV / Mono / Neu / PT / Plat / RBC / Ret / WBC: tissue Blood; for KIDNEY_L / KIDNEY_R / KIDNEY_TOTAL: tissue Kidney; for LIVER: tissue Liver; for A/G / ALP / ALT / AST / BUN / CRE / Ca / Cl / DBIL / GLC / IP / K / LDH / Na / PL / RALB / TBIL / TC / TG / TP / gamma-GTP: tissue Plasma

CCCNC(=O)NS(=O)(=O)c1ccc(Cl)cc1 [CHLORPROPAMIDE]
TERMINAL_BW (3 h): 198 g | APTT (3 h): 20.5 s | Bas (3 h): 0% | Eos (3 h): 0.6% | Fbg (3 h): 309.8 mg/dL | Hb (3 h): 14.6 g/dL | Ht (3 h): 45.2% | Lym (3 h): 74.8% | MCH (3 h): 20.8 pg | MCHC (3 h): 32.2% | MCV (3 h): 64.6 fL | Mono (3 h): 4.6% | Neu (3 h): 18.6% | PT (3 h): 15.7 s | Plat (3 h): 121.4 x10_4/uL | RBC (3 h): 700.6 x10_4/ul | Ret (3 h): 9.7% | WBC (3 h): 57 x10_2/uL | KIDNEY_L (3 h): 0.8 g | KIDNEY_R (3 h): 0.9 g | KIDNEY_TOTAL (3 h): 1.7 g | LIVER (3 h): 9.1 g | A/G (3 h): 0.9 | ALP (3 h): 1404.2 IU/L | ALT (3 h): 46.4 IU/L | AST (3 h): 80.8 IU/L | BUN (3 h): 12 mg/dL | CRE (3 h): 0.2 mg/dL | Ca (3 h): 10.8 mg/dL | Cl (3 h): 105.4 meq/L | DBIL (3 h): 0.008 mg/dL | GLC (3 h): 147.4 mg/dL | IP (3 h): 10.1 mg/dL | K (3 h): 3.8 meq/L | LDH (3 h): 86 IU/L | Na (3 h): 143.8 meq/L | PL (3 h): 126.8 mg/dL | RALB (3 h): 2.8 g/dL | TBIL (3 h): 0.018 mg/dL | TC (3 h): 71.8 mg/dL | TG (3 h): 60 mg/dL | TP (3 h): 6 g/dL | gamma-GTP (3 h): 1 IU/L | TERMINAL_BW (6 h): 195 g | APTT (6 h): 19.7 s | Bas (6 h): 0% | Eos (6 h): 1% | Fbg (6 h): 344.4 mg/dL | Hb (6 h): 14.6 g/dL | Ht (6 h): 44.7% | Lym (6 h): 72.2% | MCH (6 h): 21.7 pg | MCHC (6 h): 32.6% | MCV (6 h): 66.6 fL | Mono (6 h): 4.2% | Neu (6 h): 21.4% | PT (6 h): 16.1 s | Plat (6 h): 105.8 x10_4/uL | RBC (6 h): 670.8 x10_4/ul | Ret (6 h): 9% | WBC (6 h): 59.6 x10_2/uL | KIDNEY_L (6 h): 0.9 g | KIDNEY_R (6 h): 0.9 g | KIDNEY_TOTAL (6 h): 1.8 g | LIVER (6 h): 8 g | A/G (6 h): 0.9 | ALP (6 h): 1619.2 IU/L | ALT (6 h): 45.2 IU/L | AST (6 h): 77.4 IU/L | BUN (6 h): 14.8 mg/dL | CRE (6 h): 0.2 mg/dL | Ca (6 h): 10.9 mg/dL | Cl (6 h): 106.2 meq/L | DBIL (6 h): 0.004 mg/dL | GLC (6 h): 108.4 mg/dL | IP (6 h): 10.2 mg/dL | K (6 h): 4.1 meq/L | LDH (6 h): 82.6 IU/L | Na (6 h): 143.2 meq/L | PL (6 h): 135.8 mg/dL | RALB (6 h): 2.8 g/dL | TBIL (6 h): 0.018 mg/dL | TC (6 h): 79.8 mg/dL | TG (6 h): 46.6 mg/dL | TP (6 h): 6 g/dL | gamma-GTP (6 h): 1.2 IU/L | TERMINAL_BW (9 h): 193.3 g | APTT (9 h): 19.1 s | Bas (9 h): 0.4% | Eos (9 h): 0.8% | Fbg (9 h): 391.6 mg/dL | Hb (9 h): 13.4 g/dL | Ht (9 h): 41.5% | Lym (9 h): 72.2% | MCH (9 h): 21.3 pg | MCHC (9 h): 32.3% | MCV (9 h): 65.8 fL | Mono (9 h): 3% | Neu (9 h): 23.2% | PT (9 h): 16.8 s | Plat (9 h): 118.3 x10_4/uL | RBC (9 h): 629.8 x10_4/ul | Ret (9 h): 8.9% | WBC (9 h): 93.5 x10_2/uL | KIDNEY_L (9 h): 0.9 g | KIDNEY_R (9 h): 0.9 g | KIDNEY_TOTAL (9 h): 1.7 g | LIVER (9 h): 8.2 g | A/G (9 h): 0.9 | ALP (9 h): 1339.6 IU/L | ALT (9 h): 46.8 IU/L | AST (9 h): 83.2 IU/L | BUN (9 h): 15.4 mg/dL | CRE (9 h): 0.2 mg/dL | Ca (9 h): 10.9 mg/dL | Cl (9 h): 106.4 meq/L | DBIL (9 h): 0.008 mg/dL | GLC (9 h): 96.8 mg/dL | IP (9 h): 10.3 mg/dL | K (9 h): 3.9 meq/L | LDH (9 h): 85.2 IU/L | Na (9 h): 143.6 meq/L | PL (9 h): 127.8 mg/dL | RALB (9 h): 2.7 g/dL | TBIL (9 h): 0.022 mg/dL | TC (9 h): 72.4 mg/dL | TG (9 h): 50.6 mg/dL | TP (9 h): 5.8 g/dL | gamma-GTP (9 h): 1.2 IU/L | TERMINAL_BW (24 h): 201.3 g | APTT (24 h): 21.1 s | Bas (24 h): 0% | Eos (24 h): 1% | Fbg (24 h): 308 mg/dL | Hb (24 h): 13.2 g/dL | Ht (24 h): 41.1% | Lym (24 h): 81.2% | MCH (24 h): 20.4 pg | MCHC (24 h): 32.1% | MCV (24 h): 63.5 fL | Mono (24 h): 3% | Neu (24 h): 13.6% | PT (24 h): 16.2 s | Plat (24 h): 114.9 x10_4/uL | RBC (24 h): 647.2 x10_4/ul | Ret (24 h): 7% | WBC (24 h): 88.4 x10_2/uL | KIDNEY_L (24 h): 0.9 g | KIDNEY_R (24 h): 0.9 g | KIDNEY_TOTAL (24 h): 1.8 g | LIVER (24 h): 8.5 g | A/G (24 h): 0.9 | ALP (24 h): 1944.4 IU/L | ALT (24 h): 46.8 IU/L | AST (24 h): 75 IU/L | BUN (24 h): 15.4 mg/dL | CRE (24 h): 0.2 mg/dL | Ca (24 h): 10.8 mg/dL | Cl (24 h): 108 meq/L | DBIL (24 h): 0.008 mg/dL | GLC (24 h): 185.4 mg/dL | IP (24 h): 8.1 mg/dL | K (24 h): 3.6 meq/L | LDH (24 h): 74 IU/L | Na (24 h): 142.2 meq/L | PL (24 h): 129.6 mg/dL | RALB (24 h): 2.7 g/dL | TBIL (24 h): 0.022 mg/dL | TC (24 h): 74.8 mg/dL | TG (24 h): 45.4 mg/dL | TP (24 h): 5.7 g/dL | gamma-GTP (24 h): 1 IU/L
